Assay results as given in ChEMBL document CHEMBL1123200 (J Med Chem, 1986).

What was measured:
[1] = organism: Rattus norvegicus
[2] = organism: Rattus norvegicus; remark: listed apart in the source
[3] = organism: Rattus norvegicus; assay: Inhibition was measured for [3H]GABA-uptake from rat synaptosomal membrane.; type: functional

SMILES: NCCCC(=O)O
- Km [1]: 4.3 µM
- Vmax (pM min-1 mg-1) [2]: 881

SMILES: O=C(O)C1CCCNC1 (stereo not given) [NIPECOTIC ACID]
- Ki [3]: 3.8 µM

SMILES: O=C(O)C1=CC(=C(c2ccccc2)c2ccccc2)CNC1
- Ki [3]: 104 µM

SMILES: CN1CC(C(=O)O)=CC(=C(c2ccccc2)c2ccccc2)C1
- Ki [3]: 12.9 µM
